Laboratory results reported in PubChem BioAssay AID248 (DTP/NCI, 2004).
“And” between values parts separate entries of the source, which are not always exact repeats. Equal entries are not always repeated. Toxic doses and inconclusive results are not listed. Cut-off read from the data, not from the text of the source: active = T/C of 150% or more; inactive = T/C below 125%.

Test system: L1210 leukemia ip in BDF1 mice, survival T/C
Assay: NCI In Vivo Anticancer Drug Screen. Data for tumor model L1210 Leukemia (intraperitoneal) in B6D2F1 (BDF1) mice
Conditions: endpoint: mean survival time, higher = longer survival
Outline: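 Tumor cells were implanted, animals were treated, and survival was followed. The result divides the treated measurement by the vehicle-control measurement.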

[1] = dose: 12.5 mg/kg/injection, schedule: Q01DX009 (ip), vehicle: Klucel (hydroxypropylcellulose) (HPC)
[2] = dose: 25.0 mg/kg/injection, schedule: Q01DX009 (ip), vehicle: Klucel (hydroxypropylcellulose) (HPC)
[3] = dose: 100.0 mg/kg/injection, schedule: Q04DX002 (ip), vehicle: Klucel (hydroxypropylcellulose) (HPC)
[4] = dose: 200.0 mg/kg/injection, schedule: Q04DX002 (ip), vehicle: Klucel (hydroxypropylcellulose) (HPC)
[5] = dose: 400.0 mg/kg/injection, schedule: Q04DX002 (ip), vehicle: Klucel (hydroxypropylcellulose) (HPC)
[6] = dose: 100.0 mg/kg/injection, schedule: Q01DX009 (ip), vehicle: Klucel (hydroxypropylcellulose) (HPC)
[7] = dose: 100.0 mg/kg/injection, schedule: Q04DX003 (ip), vehicle: Klucel (hydroxypropylcellulose) (HPC)
[8] = dose: 200.0 mg/kg/injection, schedule: Q01DX009 (ip), vehicle: Klucel (hydroxypropylcellulose) (HPC)
[9] = dose: 200.0 mg/kg/injection, schedule: Q04DX003 (ip), vehicle: Klucel (hydroxypropylcellulose) (HPC)
[10] = dose: 400.0 mg/kg/injection, schedule: Q01DX009 (ip), vehicle: Klucel (hydroxypropylcellulose) (HPC)
[11] = dose: 400.0 mg/kg/injection, schedule: Q04DX003 (ip), vehicle: Klucel (hydroxypropylcellulose) (HPC)
[12] = dose: 100.0 mg/kg/injection, schedule: Q01DX001 (ip), vehicle: Klucel (hydroxypropylcellulose) (HPC)
[13] = dose: 200.0 mg/kg/injection, schedule: Q01DX001 (ip), vehicle: Klucel (hydroxypropylcellulose) (HPC)
[14] = dose: 400.0 mg/kg/injection, schedule: Q01DX001 (ip), vehicle: Klucel (hydroxypropylcellulose) (HPC)
[15] = dose: 50.0 mg/kg/injection, schedule: Q01DX001 (ip), vehicle: carboxymethylcellulose (CMC)
[16] = dose: 100.0 mg/kg/injection, schedule: Q01DX001 (ip), vehicle: carboxymethylcellulose (CMC)
[17] = dose: 200.0 mg/kg/injection, schedule: Q01DX001 (ip), vehicle: carboxymethylcellulose (CMC)
[18] = dose: 400.0 mg/kg/injection, schedule: Q01DX001 (ip), vehicle: carboxymethylcellulose (CMC)
[19] = dose: 100.0 mg/kg/injection, schedule: Q01DX001 (ip), vehicle: saline
[20] = dose: 200.0 mg/kg/injection, schedule: Q01DX001 (ip), vehicle: saline
[21] = dose: 400.0 mg/kg/injection, schedule: Q01DX001 (ip), vehicle: saline

Measured: T/C

CCOC(=O)CC(C)=O.CCOC(=O)CC(C)=O.CCOC(=O)CC(C)=O.[Al]
inactive: dose: 12.5 mg/kg/injection, schedule: Q01DX005 (ip), vehicle: Klucel (hydroxypropylcellulose) (HPC) 96 % of control | [1] 104 % of control | dose: 25.0 mg/kg/injection, schedule: Q01DX005 (ip), vehicle: Klucel (hydroxypropylcellulose) (HPC) 100 % of control | [2] 107 % of control | dose: 50.0 mg/kg/injection, schedule: Q01DX005 (ip), vehicle: Klucel (hydroxypropylcellulose) (HPC) 93 % of control | [3] 100 % of control | [4] 93 % of control | [5] 107 % of control

CCCCCCn1c(O)c(C=N)c(=O)[nH]c1=O
inactive: [6] 100 % of control | [7] 93 % of control | [8] 99 % of control | [9] 100 % of control | [10] 97 % of control | [11] 94 % of control

C=CSCCCC(C)=O
inactive: [12] 97 % of control | [13] 103 % of control | [14] 101 % of control

Oc1ccccc1C1N(Cc2ccc(N(CCCl)CCCl)cc2Cl)CCCN1Cc1ccc(N(CCCl)CCCl)cc1Cl
inactive: [15] 96 % of control | [16] 90 % of control | [17] 94 % of control | [18] 102 % of control

CCCCOC(=O)c1ccc(OC(=O)Nc2cccc(Cl)c2)cc1
inactive: [12] 94 % of control | [13] 92 % of control | [8] 102 % of control | [14] 90 % of control

C(=C\c1cccnc1)/c1ccncc1
inactive: dose: 50.0 mg/kg/injection, schedule: Q04DX003 (ip), vehicle: saline with Tween-80 97 % of control | dose: 100.0 mg/kg/injection, schedule: Q04DX003 (ip), vehicle: saline with Tween-80 102 % of control

CCOC(=O)C(C)(C)CN(CC(C)(C)C(=O)OCC)C(C)(C)C
inactive: dose: 100.0 mg/kg/injection, schedule: Q01DX001 (ip), vehicle: saline sonified 87 % of control | dose: 200.0 mg/kg/injection, schedule: Q01DX001 (ip), vehicle: saline sonified 93 % of control | dose: 400.0 mg/kg/injection, schedule: Q01DX001 (ip), vehicle: saline sonified 91 % of control

O=C1c2cc(F)ccc2-c2cccc(F)c21
inactive: [15] 102 % of control | [16] 108 % of control | [17] 104 % of control | [18] 98 % of control

NC(=O)CCC(NC(=O)Cc1ccccc1)C(=O)O (stereo not given)
inactive: dose: 18.75 mg/kg/injection, schedule: Q01DX001 (ip), vehicle: Klucel (hydroxypropylcellulose) (HPC) 92 % of control | dose: 37.5 mg/kg/injection, schedule: Q01DX001 (ip), vehicle: Klucel (hydroxypropylcellulose) (HPC) 100 % of control | dose: 75.0 mg/kg/injection, schedule: Q01DX001 (ip), vehicle: Klucel (hydroxypropylcellulose) (HPC) 97 % of control

OC[CH2][Sb]([Cl])([Cl])([c]1ccccc1)[c]1ccccc1
inactive: dose: 5.0 mg/kg/injection, schedule: Q04DX002 (ip), vehicle: saline with Tween-80 97 % of control | dose: 10.0 mg/kg/injection, schedule: Q04DX002 (ip), vehicle: saline with Tween-80 101 % of control | dose: 20.0 mg/kg/injection, schedule: Q04DX002 (ip), vehicle: saline with Tween-80 101 % of control

CN(C)c1ccc(C=Nc2ccc3c(c2)Cc2ccccc2-3)cc1
inactive: [6] 97 % of control | [7] 94 % of control | [8] 95 % of control | [9] 107 % of control | [10] 90 % of control | [11] 97 % of control

Nc1c(Cl)cc(I)cc1C(=O)O
inactive: [3] 94 % of control | [4] 102 % of control | [5] 102 % of control

CCOC(=O)C[n+]1ccc(C(=O)c2cc3ccccc3[nH]2)cc1
inactive: dose: 100.0 mg/kg/injection, schedule: Q01DX009 (ip), vehicle: saline with Tween-80 93 % of control | dose: 200.0 mg/kg/injection, schedule: Q01DX009 (ip), vehicle: saline with Tween-80 92 % of control

O=C(O)C(F)(F)F
inactive: dose: 50.0 mg/kg/injection, schedule: Q01DX001 (ip), vehicle: water 112 % of control | dose: 50.0 mg/kg/injection, schedule: Q01DX001 (iv), vehicle: water 116 % of control | [19] 102 % of control | dose: 100.0 mg/kg/injection, schedule: Q01DX001 (iv), vehicle: water 114 % of control | dose: 100.0 mg/kg/injection, schedule: Q01DX009 (ip), vehicle: saline 100 % of control | dose: 100.0 mg/kg/injection, schedule: Q04DX002 (ip), vehicle: saline 96 % of control and 98 % of control | dose: 100.0 mg/kg/injection, schedule: Q04DX003 (ip), vehicle: saline 95 % of control | [20] 104 % of control | dose: 200.0 mg/kg/injection, schedule: Q01DX009 (ip), vehicle: saline 95 % of control and 96 % of control | dose: 200.0 mg/kg/injection, schedule: Q04DX002 (ip), vehicle: saline 94 % of control and 89 % of control | dose: 200.0 mg/kg/injection, schedule: Q04DX003 (ip), vehicle: saline 93 % of control | [21] 98 % of control | dose: 400.0 mg/kg/injection, schedule: Q01DX009 (ip), vehicle: saline 98 % of control and 90 % of control | dose: 400.0 mg/kg/injection, schedule: Q04DX002 (ip), vehicle: saline 93 % of control and 94 % of control | dose: 400.0 mg/kg/injection, schedule: Q04DX003 (ip), vehicle: saline 91 % of control

O=[N+]([O-])C(CO)(CO)CC(F)(F)F
inactive: dose: 3.13 mg/kg/injection, schedule: Q01DX009 (ip), vehicle: saline 96 % of control | dose: 6.25 mg/kg/injection, schedule: Q01DX009 (ip), vehicle: saline 98 % of control | dose: 12.5 mg/kg/injection, schedule: Q01DX009 (ip), vehicle: saline 102 % of control

CCOC=N
inactive: dose: 50.0 mg/kg/injection, schedule: Q01DX001 (ip), vehicle: saline 95 % of control | [19] 95 % of control | [20] 97 % of control | [21] 101 % of control

CSc1ssc(=Nc2ccc(C)cc2)c1-c1ccccc1
inactive: [6] 95 % of control | [7] 88 % of control | [8] 93 % of control | [9] 91 % of control | [10] 93 % of control | [11] 89 % of control

COc1ccc([N+](=O)[O-])cc1CN(C)C(C)C
inactive: [1] 97 % of control | dose: 12.5 mg/kg/injection, schedule: Q04DX003 (ip), vehicle: Klucel (hydroxypropylcellulose) (HPC) 97 % of control | [2] 97 % of control | dose: 25.0 mg/kg/injection, schedule: Q04DX003 (ip), vehicle: Klucel (hydroxypropylcellulose) (HPC) 100 % of control | dose: 50.0 mg/kg/injection, schedule: Q01DX009 (ip), vehicle: Klucel (hydroxypropylcellulose) (HPC) 92 % of control | dose: 50.0 mg/kg/injection, schedule: Q04DX003 (ip), vehicle: Klucel (hydroxypropylcellulose) (HPC) 97 % of control
